# Assay results published in PMC6407913, “DREADD Agonist 21 Is an Effective Agonist for Muscarinic-Based DREADDs in Vitro and in Vivo” (ACS Pharmacology & Translational Science, 2018).
# “And” between values parts separate entries of the source, which are not always exact repeats. Equal entries are not always repeated. Where two headings read alike, the source gives them in different places.
# Assays:
# Type in all cases: cell-based
# [1] = target: 318 nonolfactory human GPCRs (Homo sapiens, UniProt Q99500); conditions: S1PR3; C21 5 µM
# [2] = target: T1, 318 nonolfactory human GPCRs (Homo sapiens, UniProt Q13324); conditions: CRHR2; C21 5 µM
# T1 construct: expressed in transfected cells; host or cells: HTLA cells, transient
# [3] = target: T2, 318 nonolfactory human GPCRs (Homo sapiens, UniProt O14626); conditions: GPR171; C21 5 µM
# T2 construct: expressed in transfected cells; host or cells: HTLA cells, transient
# [4] = target: 318 nonolfactory human GPCRs (Homo sapiens, UniProt P61073); conditions: CXCR4; C21 5 µM
# [5] = tested on: 318 nonolfactory human GPCRs; conditions: for FOLD OVER BASAL: C21 5 µM
# [6] = target: T3, 318 nonolfactory human GPCRs (Homo sapiens, UniProt P25089); conditions: FPR3; C21 5 µM
# T3 construct: expressed in transfected cells; host or cells: HTLA cells, transient
# [7] = target: 318 nonolfactory human GPCRs (Homo sapiens, UniProt P25103); conditions: TACR1; C21 5 µM
# [8] = target: T4, 318 nonolfactory human GPCRs (Homo sapiens, UniProt Q9Y2T6); conditions: GPR55; C21 5 µM
# T4 construct: expressed in transfected cells; host or cells: HTLA cells, transient
# [9] = target: T5, 318 nonolfactory human GPCRs (Homo sapiens, UniProt O00222); conditions: GRM8; C21 5 µM
# T5 construct: expressed in transfected cells; host or cells: HTLA cells, transient
# [10] = target: T6, 318 nonolfactory human GPCRs (Homo sapiens, UniProt Q92847); conditions: GHSR; C21 5 µM
# T6 construct: expressed in transfected cells; host or cells: HTLA cells, transient
# [11] = target: T7, 318 nonolfactory human GPCRs (Homo sapiens, UniProt Q8TDV0); conditions: GPR151; C21 5 µM
# T7 construct: expressed in transfected cells; host or cells: HTLA cells, transient
# [12] = target: T8, 318 nonolfactory human GPCRs (Homo sapiens, UniProt P35367); conditions: HRH1; C21 5 µM
# T8 construct: expressed in transfected cells; host or cells: HTLA cells, transient
# [13] = target: T9, 318 nonolfactory human GPCRs (Homo sapiens, UniProt P49238); conditions: CX3CR1; C21 5 µM
# T9 construct: expressed in transfected cells; host or cells: HTLA cells, transient
# [14] = target: 318 nonolfactory human GPCRs (Homo sapiens, UniProt P30989); conditions: NTSR1; C21 5 µM
# [15] = target: T10, 318 nonolfactory human GPCRs (Homo sapiens, UniProt Q13639); conditions: HTR4; C21 5 µM
# T10 construct: expressed in transfected cells; host or cells: HTLA cells, transient
# [16] = target: T11, 318 nonolfactory human GPCRs (Homo sapiens, UniProt Q99705); conditions: MCHR1R; C21 5 µM
# T11 construct: expressed in transfected cells; host or cells: HTLA cells, transient
# [17] = target: T12, 318 nonolfactory human GPCRs (Homo sapiens, UniProt P34998); conditions: CRHR1; C21 5 µM
# T12 construct: expressed in transfected cells; host or cells: HTLA cells, transient
# [18] = target: 318 nonolfactory human GPCRs (Homo sapiens, UniProt P21917); conditions: DRD4; C21 5 µM
# [19] = target: 318 nonolfactory human GPCRs (Homo sapiens, UniProt P21462); conditions: FPR1; C21 5 µM
# [20] = target: T13, 318 nonolfactory human GPCRs (Homo sapiens, UniProt Q9H1C0); conditions: LPAR5; C21 5 µM
# T13 construct: expressed in transfected cells; host or cells: HTLA cells, transient
# [21] = target: 318 nonolfactory human GPCRs (Homo sapiens, UniProt P21728); conditions: DRD1; C21 5 µM
# [22] = target: T14, 318 nonolfactory human GPCRs (Homo sapiens, UniProt P34995); conditions: PTGER1; C21 5 µM
# T14 construct: expressed in transfected cells; host or cells: HTLA cells, transient
# [23] = target: T15, 318 nonolfactory human GPCRs (Homo sapiens, UniProt O95800); conditions: GPR75; C21 5 µM
# T15 construct: expressed in transfected cells; host or cells: HTLA cells, transient
# [24] = target: T16, 318 nonolfactory human GPCRs (Homo sapiens, UniProt P51684); conditions: CCR6; C21 5 µM
# T16 construct: expressed in transfected cells; host or cells: HTLA cells, transient
# [25] = target: T17, 318 nonolfactory human GPCRs (Homo sapiens, UniProt Q9NPC1); conditions: LTB4R2B; C21 5 µM
# T17 construct: expressed in transfected cells; host or cells: HTLA cells, transient
# [26] = target: T18, 318 nonolfactory human GPCRs (Homo sapiens, UniProt Q96P68); conditions: OXGR1; C21 5 µM
# T18 construct: expressed in transfected cells; host or cells: HTLA cells, transient
# [27] = target: T19, 318 nonolfactory human GPCRs (Homo sapiens, UniProt Q86SP6); conditions: GPR149; C21 5 µM
# T19 construct: expressed in transfected cells; host or cells: HTLA cells, transient
# [28] = target: 318 nonolfactory human GPCRs (Homo sapiens, UniProt Q15743); conditions: GPR68; C21 5 µM
# [29] = target: T20, 318 nonolfactory human GPCRs (Homo sapiens, UniProt Q14330); conditions: GPR18; C21 5 µM
# T20 construct: expressed in transfected cells; host or cells: HTLA cells, transient
# [30] = target: T21, 318 nonolfactory human GPCRs (Homo sapiens, UniProt Q6U736); conditions: OPN5; C21 5 µM
# T21 construct: expressed in transfected cells; host or cells: HTLA cells, transient
# [31] = target: 318 nonolfactory human GPCRs (Homo sapiens, UniProt Q8TDS4); conditions: HCA2; C21 5 µM
# [32] = target: T22, 318 nonolfactory human GPCRs (Homo sapiens, UniProt Q9Y5Y4); conditions: GPR44; C21 5 µM
# T22 construct: expressed in transfected cells; host or cells: HTLA cells, transient
# [33] = target: T23, 318 nonolfactory human GPCRs (Homo sapiens, UniProt P46089); conditions: GPR3; C21 5 µM
# T23 construct: expressed in transfected cells; host or cells: HTLA cells, transient
# T23 sequence (P46089 whole entry): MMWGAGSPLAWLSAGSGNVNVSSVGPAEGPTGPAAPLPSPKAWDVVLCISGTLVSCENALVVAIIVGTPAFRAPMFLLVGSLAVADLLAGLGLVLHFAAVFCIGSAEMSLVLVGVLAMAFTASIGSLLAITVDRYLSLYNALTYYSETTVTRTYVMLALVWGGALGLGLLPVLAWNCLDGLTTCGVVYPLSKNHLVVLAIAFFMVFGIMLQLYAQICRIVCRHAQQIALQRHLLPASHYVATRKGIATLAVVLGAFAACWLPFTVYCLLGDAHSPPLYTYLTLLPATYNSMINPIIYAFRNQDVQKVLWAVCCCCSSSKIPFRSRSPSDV
# T5 sequence (O00222 34-908): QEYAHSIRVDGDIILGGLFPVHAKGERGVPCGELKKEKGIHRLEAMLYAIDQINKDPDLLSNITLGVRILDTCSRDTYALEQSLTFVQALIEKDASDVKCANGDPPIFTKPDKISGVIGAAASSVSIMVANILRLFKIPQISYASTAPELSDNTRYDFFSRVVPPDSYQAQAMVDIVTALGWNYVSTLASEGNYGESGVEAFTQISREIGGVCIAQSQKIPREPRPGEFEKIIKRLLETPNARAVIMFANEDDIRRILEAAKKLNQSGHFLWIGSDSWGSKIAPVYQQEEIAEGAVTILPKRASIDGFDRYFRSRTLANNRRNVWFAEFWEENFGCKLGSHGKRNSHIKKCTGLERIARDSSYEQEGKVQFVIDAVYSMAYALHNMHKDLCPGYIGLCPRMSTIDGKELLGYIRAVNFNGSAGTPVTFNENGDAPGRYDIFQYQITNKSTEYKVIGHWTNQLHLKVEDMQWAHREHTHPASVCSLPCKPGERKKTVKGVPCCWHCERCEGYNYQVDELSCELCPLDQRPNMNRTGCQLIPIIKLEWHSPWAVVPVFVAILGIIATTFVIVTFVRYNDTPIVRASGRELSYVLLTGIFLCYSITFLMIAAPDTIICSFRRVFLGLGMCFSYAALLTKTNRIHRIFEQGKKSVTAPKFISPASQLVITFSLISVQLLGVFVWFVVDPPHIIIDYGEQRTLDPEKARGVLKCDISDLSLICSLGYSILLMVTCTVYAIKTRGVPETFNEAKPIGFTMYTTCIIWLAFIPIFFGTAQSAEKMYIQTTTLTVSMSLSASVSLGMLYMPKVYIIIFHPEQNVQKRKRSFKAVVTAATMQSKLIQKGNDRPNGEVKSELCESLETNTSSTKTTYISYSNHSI
# T1 sequence (Q13324 whole entry): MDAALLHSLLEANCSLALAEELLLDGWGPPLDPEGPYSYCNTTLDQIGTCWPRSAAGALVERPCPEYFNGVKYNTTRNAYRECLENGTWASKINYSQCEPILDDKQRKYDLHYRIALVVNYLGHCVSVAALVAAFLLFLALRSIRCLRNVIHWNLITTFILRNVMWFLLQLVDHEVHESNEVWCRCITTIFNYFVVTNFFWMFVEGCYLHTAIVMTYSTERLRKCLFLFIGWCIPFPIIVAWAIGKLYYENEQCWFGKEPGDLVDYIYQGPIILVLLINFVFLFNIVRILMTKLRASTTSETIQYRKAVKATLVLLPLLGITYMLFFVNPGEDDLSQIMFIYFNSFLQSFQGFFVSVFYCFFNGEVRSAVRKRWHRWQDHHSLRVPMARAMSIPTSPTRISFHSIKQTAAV
# Sequence of 318 nonolfactory human GPCRs (Homo sapiens, UniProt P30989) (P30989 whole entry): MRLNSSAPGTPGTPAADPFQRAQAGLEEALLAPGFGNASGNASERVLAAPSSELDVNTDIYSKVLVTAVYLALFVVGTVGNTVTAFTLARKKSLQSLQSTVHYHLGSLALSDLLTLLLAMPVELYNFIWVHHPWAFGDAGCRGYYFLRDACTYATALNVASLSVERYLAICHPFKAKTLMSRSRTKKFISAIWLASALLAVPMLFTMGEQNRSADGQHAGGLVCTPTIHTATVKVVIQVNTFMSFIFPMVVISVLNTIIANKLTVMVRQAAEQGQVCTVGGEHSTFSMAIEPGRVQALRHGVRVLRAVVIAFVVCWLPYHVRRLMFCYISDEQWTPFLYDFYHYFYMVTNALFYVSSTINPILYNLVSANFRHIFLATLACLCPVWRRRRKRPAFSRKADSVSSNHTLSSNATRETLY
# T20 sequence (Q14330 whole entry): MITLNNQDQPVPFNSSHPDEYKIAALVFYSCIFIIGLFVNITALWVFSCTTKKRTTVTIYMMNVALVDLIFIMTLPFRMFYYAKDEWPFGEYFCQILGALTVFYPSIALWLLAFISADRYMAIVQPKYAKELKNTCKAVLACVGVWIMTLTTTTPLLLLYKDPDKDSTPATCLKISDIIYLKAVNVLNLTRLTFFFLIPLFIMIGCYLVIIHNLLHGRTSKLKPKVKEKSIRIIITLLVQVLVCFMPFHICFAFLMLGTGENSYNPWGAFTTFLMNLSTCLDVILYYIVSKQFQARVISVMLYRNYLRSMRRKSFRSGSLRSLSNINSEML
# T9 sequence (P49238 whole entry): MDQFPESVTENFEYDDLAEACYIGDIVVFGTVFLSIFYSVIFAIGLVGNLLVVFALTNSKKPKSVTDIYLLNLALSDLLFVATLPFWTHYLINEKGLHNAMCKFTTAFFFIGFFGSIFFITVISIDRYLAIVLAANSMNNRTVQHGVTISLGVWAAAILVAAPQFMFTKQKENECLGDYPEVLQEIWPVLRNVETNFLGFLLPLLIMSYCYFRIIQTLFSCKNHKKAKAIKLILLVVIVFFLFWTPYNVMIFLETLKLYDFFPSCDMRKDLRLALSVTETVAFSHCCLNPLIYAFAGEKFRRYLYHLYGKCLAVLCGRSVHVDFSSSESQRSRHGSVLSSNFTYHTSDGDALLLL
# T12 sequence (P34998 24-415): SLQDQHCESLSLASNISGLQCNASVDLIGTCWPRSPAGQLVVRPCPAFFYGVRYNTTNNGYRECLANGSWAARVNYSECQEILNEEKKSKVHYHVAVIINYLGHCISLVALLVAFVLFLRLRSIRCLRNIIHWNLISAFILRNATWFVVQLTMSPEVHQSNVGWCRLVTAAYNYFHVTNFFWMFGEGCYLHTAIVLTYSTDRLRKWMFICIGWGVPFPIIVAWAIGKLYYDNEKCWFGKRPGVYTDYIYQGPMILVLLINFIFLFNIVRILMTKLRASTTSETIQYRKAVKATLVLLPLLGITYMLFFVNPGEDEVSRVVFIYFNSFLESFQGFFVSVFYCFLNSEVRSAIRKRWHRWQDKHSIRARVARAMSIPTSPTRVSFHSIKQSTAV
# T19 sequence (Q86SP6 whole entry): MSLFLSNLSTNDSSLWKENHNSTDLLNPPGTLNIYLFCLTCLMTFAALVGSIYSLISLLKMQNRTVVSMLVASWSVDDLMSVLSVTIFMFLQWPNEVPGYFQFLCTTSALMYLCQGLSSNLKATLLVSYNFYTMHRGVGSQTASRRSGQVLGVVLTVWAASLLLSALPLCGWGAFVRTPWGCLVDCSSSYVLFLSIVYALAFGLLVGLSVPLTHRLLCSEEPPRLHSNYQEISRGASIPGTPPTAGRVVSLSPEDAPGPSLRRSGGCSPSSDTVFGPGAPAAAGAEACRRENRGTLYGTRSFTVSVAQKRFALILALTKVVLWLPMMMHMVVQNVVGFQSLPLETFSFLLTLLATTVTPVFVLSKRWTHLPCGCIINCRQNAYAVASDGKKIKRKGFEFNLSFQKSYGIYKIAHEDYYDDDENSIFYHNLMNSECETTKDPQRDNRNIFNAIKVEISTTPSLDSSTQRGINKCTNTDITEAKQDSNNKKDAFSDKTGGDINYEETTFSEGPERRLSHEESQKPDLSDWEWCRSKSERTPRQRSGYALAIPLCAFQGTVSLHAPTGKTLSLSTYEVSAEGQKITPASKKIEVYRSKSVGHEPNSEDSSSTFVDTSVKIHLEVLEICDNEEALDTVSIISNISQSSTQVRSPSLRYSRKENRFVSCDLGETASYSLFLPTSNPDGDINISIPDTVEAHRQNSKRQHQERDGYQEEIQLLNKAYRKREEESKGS
# Sequence of 318 nonolfactory human GPCRs (Homo sapiens, UniProt Q99500) (Q99500 whole entry): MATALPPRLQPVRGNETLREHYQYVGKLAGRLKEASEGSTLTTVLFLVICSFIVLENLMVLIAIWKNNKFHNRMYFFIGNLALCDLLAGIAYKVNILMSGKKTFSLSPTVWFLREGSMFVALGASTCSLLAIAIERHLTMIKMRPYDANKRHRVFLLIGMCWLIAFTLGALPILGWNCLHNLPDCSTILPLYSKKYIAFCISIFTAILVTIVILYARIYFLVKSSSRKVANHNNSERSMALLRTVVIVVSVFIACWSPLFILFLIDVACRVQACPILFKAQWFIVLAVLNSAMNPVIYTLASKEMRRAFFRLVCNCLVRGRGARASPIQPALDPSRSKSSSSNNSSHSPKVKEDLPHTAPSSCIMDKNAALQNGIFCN
# Sequence of 318 nonolfactory human GPCRs (Homo sapiens, UniProt P61073) (P61073 whole entry): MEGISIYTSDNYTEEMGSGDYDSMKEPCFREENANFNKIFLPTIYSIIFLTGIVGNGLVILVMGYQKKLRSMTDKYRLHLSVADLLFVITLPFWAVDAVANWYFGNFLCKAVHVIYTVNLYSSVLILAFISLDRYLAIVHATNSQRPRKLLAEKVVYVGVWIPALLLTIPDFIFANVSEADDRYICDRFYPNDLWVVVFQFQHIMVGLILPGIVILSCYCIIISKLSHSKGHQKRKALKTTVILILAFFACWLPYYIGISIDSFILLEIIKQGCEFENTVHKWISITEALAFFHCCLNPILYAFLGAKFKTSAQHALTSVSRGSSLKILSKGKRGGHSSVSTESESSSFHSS
# T16 sequence (P51684 whole entry): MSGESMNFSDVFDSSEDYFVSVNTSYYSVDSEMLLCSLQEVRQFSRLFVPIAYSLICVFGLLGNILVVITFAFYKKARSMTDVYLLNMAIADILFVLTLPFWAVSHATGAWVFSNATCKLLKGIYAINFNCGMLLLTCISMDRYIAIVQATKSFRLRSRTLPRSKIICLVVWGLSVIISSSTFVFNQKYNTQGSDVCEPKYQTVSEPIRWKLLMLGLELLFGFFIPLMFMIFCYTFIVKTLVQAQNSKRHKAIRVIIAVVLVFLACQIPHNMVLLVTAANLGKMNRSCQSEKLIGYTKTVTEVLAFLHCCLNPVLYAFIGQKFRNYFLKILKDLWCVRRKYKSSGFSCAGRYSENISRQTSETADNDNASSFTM
smiles,measurement,setting,value
"c1ccc2c(c1)N=C(N1CCNCC1)c1ccccc1N2 [C21, 11-(1-piperazinyl)-5H-dibenzo[b,e][1,4]diazepine]",FOLD OVER BASAL,[1],0.9 fold and 0.8 fold and 1 fold
same,FOLD OVER BASAL,[2],1.3 fold and 1 fold and 0.9 fold
same,FOLD OVER BASAL,[3],0.6 fold and 0.5 fold and 0.8 fold
same,FOLD OVER BASAL,[4],0.7 fold and 1 fold and 0.9 fold
same,FOLD OVER BASAL,[5]; CALCRb,0.8 fold and 0.6 fold and 0.5 fold
same,FOLD OVER BASAL,[5]; GAL2,1.2 fold and 0.9 fold and 1.3 fold
same,FOLD OVER BASAL,[5]; GAL3,1.1 fold and 0.7 fold and 0.9 fold
same,FOLD OVER BASAL,[5]; HCTR2,1.1 fold and 0.8 fold and 0.6 fold
same,FOLD OVER BASAL,[5]; PK1,1.3 fold and 1.4 fold and 0.8 fold and 1.5 fold
same,FOLD OVER BASAL,[5]; PRRP,1 fold and 0.9 fold and 0.6 fold
same,agonist activity at GPCRome (fold of basal),"[5]; single concentration 5 μM, PRESTO-Tango, quadruplicate","agonist activity only at M4-, D2-, and H4-histamine receptors"
same,FOLD OVER BASAL,[6],1.2 fold and 0.9 fold and 1.1 fold and 1 fold
same,FOLD OVER BASAL,[7],1.1 fold and 0.8 fold and 0.9 fold
same,FOLD OVER BASAL,[8],0.7 fold and 1 fold and 0.8 fold
same,FOLD OVER BASAL,[9],0.7 fold and 0.9 fold and 0.6 fold
same,FOLD OVER BASAL,[10],0.9 fold and 1 fold
same,FOLD OVER BASAL,[11],0.6 fold and 0.5 fold
same,FOLD OVER BASAL,[12],0.9 fold and 0.6 fold and 0.8 fold
same,FOLD OVER BASAL,[13],0.6 fold and 1.1 fold and 0.8 fold
same,FOLD OVER BASAL,[14],1.1 fold and 0.9 fold and 1.2 fold
same,FOLD OVER BASAL,[15],1.2 fold and 0.8 fold
same,FOLD OVER BASAL,[16],1 fold and 0.8 fold and 1.1 fold and 1.4 fold
same,FOLD OVER BASAL,[17],1.8 fold and 0.9 fold and 1.1 fold and 1.2 fold
same,FOLD OVER BASAL,[18],3.4 fold and 2.2 fold and 2 fold and 1.9 fold
same,FOLD OVER BASAL,[19],0.9 fold and 0.7 fold and 0.6 fold
same,FOLD OVER BASAL,[20],0.8 fold and 1.2 fold and 0.6 fold and 0.7 fold
same,FOLD OVER BASAL,[21],0.9 fold and 0.8 fold and 0.5 fold and 0.6 fold
same,FOLD OVER BASAL,[22],0.9 fold and 1 fold and 1.6 fold and 0.8 fold
same,FOLD OVER BASAL,[23],1.1 fold and 0.8 fold and 0.7 fold
same,FOLD OVER BASAL,[24],1.1 fold and 1.2 fold and 1.7 fold
same,FOLD OVER BASAL,[25],1 fold and 0.9 fold and 1.1 fold and 1.2 fold
same,FOLD OVER BASAL,[26],0.7 fold and 0.6 fold and 1.2 fold
same,FOLD OVER BASAL,[27],0.8 fold and 0.5 fold and 0.7 fold and 0.9 fold
same,FOLD OVER BASAL,[28],0.6 fold and 1 fold and 0.8 fold
same,FOLD OVER BASAL,[29],0.8 fold and 1.1 fold and 0.7 fold
same,FOLD OVER BASAL,[30],1.2 fold and 1.3 fold and 0.9 fold
same,FOLD OVER BASAL,[31],1.2 fold and 1.1 fold and 1.3 fold and 1.4 fold
same,FOLD OVER BASAL,[32],1.3 fold and 2.1 fold and 1.5 fold and 1.4 fold
same,FOLD OVER BASAL,[33],0.8 fold and 0.9 fold and 0.7 fold
